Measured values: patent US20230250096A1, “SUBSTITUTED PHENYL-1H-PYRROLO[2,3-c] PYRIDINE DERIVATIVES” (Janssen Pharmaceutica NV, priority 2021, published 2023)

Key:
[1] = molecular target: T1, menin/MLL (terbium chelate-labeled menin, FITC-MBM1 peptide) (Homo sapiens, UniProt O00255, T541A); test: Menin/MLL homogenous time-resolved fluorescence (HTRF) assay; type: binding; settings: 30 min incubation
T1 construct: Menin (a.a 1-610-6xhis tag, 2.3 mg/mL in 20 mM Hepes)
T1 sequence (O00255 with tags, fused parts or gaps T541A): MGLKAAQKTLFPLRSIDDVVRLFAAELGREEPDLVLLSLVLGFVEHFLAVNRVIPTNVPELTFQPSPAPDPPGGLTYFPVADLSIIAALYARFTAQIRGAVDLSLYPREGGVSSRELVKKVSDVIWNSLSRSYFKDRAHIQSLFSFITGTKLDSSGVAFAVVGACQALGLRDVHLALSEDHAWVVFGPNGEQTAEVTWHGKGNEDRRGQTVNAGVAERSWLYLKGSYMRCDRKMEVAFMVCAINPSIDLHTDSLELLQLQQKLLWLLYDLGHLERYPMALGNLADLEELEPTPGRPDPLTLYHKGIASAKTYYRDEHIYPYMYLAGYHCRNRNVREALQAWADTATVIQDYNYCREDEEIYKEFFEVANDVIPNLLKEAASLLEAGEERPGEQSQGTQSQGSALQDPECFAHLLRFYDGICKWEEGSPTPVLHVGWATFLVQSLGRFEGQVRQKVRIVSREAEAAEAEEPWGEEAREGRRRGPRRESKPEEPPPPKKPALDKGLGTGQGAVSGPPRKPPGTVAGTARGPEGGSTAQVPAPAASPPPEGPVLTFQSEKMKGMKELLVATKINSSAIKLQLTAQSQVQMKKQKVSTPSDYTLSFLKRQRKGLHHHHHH
Summary of the method: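 Terbium-labeled menin (a.a. 1-610, His-tagged; […]) pre-incubated 30 min with compound, then 75 nM FITC-MBM1 peptide added for 15 min at ambient temperature in Tris pH 7.5 buffer, 0.5% DMSO. HTRF 520/490 nm ratio read; IC50 from 11-point four-fold titrations, typically from 10 μM.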

MEIS1 mRNA expression = MEIS1 mRNA expression assay (Quantigene Singleplex) in MOLM14 cells; type: cell-based, human; settings: 48 hours incubation
Summary of the method: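 MOLM14 cells, 3,750/well, exposed to increasing compound concentrations for 48 h. MEIS1 mRNA measured by QuantiGene Singleplex branched-DNA hybridization (lysis 45 min, hybridization 18–22 h, both 55 °C), normalized to RPL28. IC50 fitted to background-corrected fold change versus DMSO.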

Row | Compound | IC50 [1] | IC50 (MEIS1 mRNA expression; Homo sapiens, MOLM-14, 48 h) | IC50 (MEIS1 mRNA expression)
1 | Cc1cncc2c1c(C[C@H]1CCN(C(C)C3CCOCC3)C1)cn2-c1ccc(F)cc1C(=O)N(C)C(C)C (mixture of isomers) [Compound 49] | 0.048 nM | 17 nM | 
2 | Cc1cncc2c1c(C[C@@H]1CCN(CC3CCOCC3)C1)cn2-c1ccc(F)cc1C(=O)N(C)C(C)C (single isomer, unassigned) [Compound 42] | 0.03 nM | 45 nM | 
3 | Cc1cncc2c1c(C[C@H]1CCN(CC3CCOCC3)C1)cn2-c1ccc(F)cc1C(=O)N(C)C(C)C (single isomer, unassigned) [Compound 43] | 0.027 nM | 24 nM | 
4 | Cc1cncc2c1c(C[C@@H]1CCN(CC(C)C)C1)cn2-c1ccc(F)cc1C(=O)N(C)C(C)C (single isomer, unassigned) [Compound 44] | 0.06 nM | 43 nM | 
5 | Cc1cncc2c1c(C[C@H]1CCN(CC(C)C)C1)cn2-c1ccc(F)cc1C(=O)N(C)C(C)C (single isomer, unassigned) [Compound 45] | 0.054 nM | 56 nM | 
6 | CC(=O)N1CCC(CN2CC[C@@H](Cc3cn(-c4ccc(F)cc4C(=O)N(C)C(C)C)c4cncc(C)c34)C2)CC1 (single isomer, unassigned) [Compound 50] | 0.079 nM | 89 nM | 
7 | COCC(=O)N1CCC(CN2CCC(Cc3cn(-c4ccc(F)cc4C(=O)N(C)C(C)C)c4cncc(C)c34)C2)CC1 (single isomer, unassigned) [Compound 59] | 0.054 nM | 9 nM | 
8 | Cc1cncc2c1c(CC1CCN(CC3CCN(C(=O)CC#N)CC3)C1)cn2-c1ccc(F)cc1C(=O)N(C)C(C)C (single isomer, unassigned) [Compound 60] | < 0.0095 nM | 7 nM | 
9 | Cc1cncc2c1c(C[C@H]1CCN(C[C@H]3CC[C@H](NS(C)(=O)=O)CC3)C1)cn2-c1ccc(F)cc1C(=O)N(C)C(C)C (single isomer, unassigned) [Compound 69] | 0.049 nM | 17 nM | 
10 | CNC(=O)[C@H]1CC[C@H](CN2CCC(Cc3cn(-c4ccc(F)cc4C(=O)N(C)C(C)C)c4cncc(C)c34)C2)CC1 (single isomer, unassigned) [Compound 70] | 0.114 nM | 48 nM | 
11 | CNC(=O)[C@H]1CC[C@H](CN2CCC(Cc3cn(-c4ccc(F)cc4C(=O)N(C)C(C)C)c4cncc(C)c34)C2)CC1 (single isomer, unassigned) [Compound 71] | 0.202 nM |  | 48 nM
12 | COCCN(C)CCCC(C(C)C)N1CC[C@@H](Cc2cn(-c3ccc(F)cc3C(=O)N(C)C(C)C)c3cncc(C)c23)C1 (stereo partly shown) [Compound 1] | 0.033 nM | 4 nM | 
13 | CC(C)C([C@H]1C[C@@H](N(C)C)C1)N1CC(Cc2cn(-c3ccc(F)cc3C(=O)N(C)C(C)C)c3cncc(Cl)c23)C1 (stereo partly shown) [Compound 41] | 0.202 nM | 15 nM | 
14 | CC(=O)N1CCC(CN2CCC(Cc3cn(-c4ccc(F)cc4C(=O)N(C)C(C)C)c4cncc(C)c34)CC2)CC1 [Compound 58] | 0.135 nM | 183 nM | 
15 | Cc1cncc2c1c(CC1CN(CC3CCOCC3)C1)cn2-c1ccc(F)cc1C(=O)N(C)C(C)C [Compound 61] | 0.132 nM | 23 nM | 
16 | CC(=O)N1CCC(CN2CC(Cc3cn(-c4ccc(F)cc4C(=O)N(C)C(C)C)c4cncc(C)c34)C2)CC1 [Compound 63] | 0.176 nM | 83 nM | 
17 | COCC(=O)N1CCC(CN2CC(Cc3cn(-c4ccc(F)cc4C(=O)N(C)C(C)C)c4cncc(C)c34)C2)CC1 [Compound 66] | 0.037 nM | 46 nM | 
18 | Cc1cncc2c1c(CC1CN(CC3CCN(C(=O)CC#N)CC3)C1)cn2-c1ccc(F)cc1C(=O)N(C)C(C)C [Compound 67] | ~0.043 nM | ~68 nM | 
19 | Cc1cncc2c1c(C[C@@H]1CCN(CC3CCOCC3)C1)cn2-c1ccc(F)cc1C(=O)N(CCO)C(C)C [Compound 357] | 0.035 nM | 15 nM | 

More lines, now with the values ahead:

Row | IC50 [1] | IC50 (MEIS1 mRNA expression; Homo sapiens, MOLM-14, 48 h) | IC50 (MEIS1 mRNA expression) | Compound
20 | 0.036 nM | 6 nM |  | CCN(C(=O)c1cc(F)ccc1-n1cc(CC2CN(C(C(C)C)[C@H]3C[C@@H](N4C[C@H]5CN(C(C)=O)C[C@@H]5C4)C3)C2)c2c(C)cncc21)C(C)C (mixture of isomers) [Compound 38a]
21 | 0.062 nM | 22 nM |  | CC(=O)N1CCN([C@H]2C[C@@H]([C@@H](C(C)C)N3CC(Cc4cn(-c5ccc(F)cc5C(=O)N(C)C(C)C)c5cncc(C)c45)C3)C2)CC1 (single isomer, unassigned) [Compound 32a]
22 | 0.034 nM | 5 nM |  | CC(=O)N1C[C@@H]2CN([C@H]3C[C@@H]([C@@H](C(C)C)N4CC(Cc5cn(-c6ccc(F)cc6C(=O)N(C)C(C)C)c6cncc(Cl)c56)C4)C3)C[C@H]2C1 (single isomer, unassigned) [Compound 39a]
23 | 0.06 nM | 9 nM |  | Cc1cncc2c1c(C[C@H]1CCN([C@@H](C)C3CCOCC3)C1)cn2-c1ccc(F)cc1C(=O)N(C)C(C)C (single isomer, unassigned) [Compound 49b]
24 | 0.081 nM | 11 nM |  | Cc1cncc2c1c(C[C@@H]1CCN(CC3CCOCC3)C1)cn2-c1ccc(F)cc1C(=O)N(C[C@H](C)O)C(C)C (single isomer, unassigned) [Compound 365b]
25 | 0.07 nM | 11 nM |  | Cc1cncc2c1c(CC1CN([C@@H](C(C)C)[C@H]3C[C@@H](N4CCC(S(C)(=O)=O)CC4)C3)C1)cn2-c1ccc(F)cc1C(=O)N(C)C(C)C [Compound 33a]
26 | 0.126 nM | 27 nM |  | CCN(C(=O)c1cc(F)ccc1-n1cc(CC2CN(C(C(C)C)[C@H]3C[C@@H](N4CCN(S(C)(=O)=O)CC4)C3)C2)c2c(C)cncc21)C(C)C (stereo partly shown) [Compound 37a]
